The values below are quoted from earlier work in patent publication US20170368054A1, “Treatment of Glaucoma Using Laquinimod” (Teva Pharmaceutical Industries, Ltd., priority 2013, published 2017).

Structures are written as SMILES.

For the series, the system named is genes related to antigen presentation and corresponding inflammatory pathways. Conditions: mainly via the NFkB pathway (Gurevich, 2010); cited from earlier work.

`CCN(C(=O)c1c(O)c2c(Cl)cccc2n(C)c1=O)c1ccccc1` [Laquinimod]: the “suppression of genes related to antigen presentation and corresponding inflammatory pathways” value is reported as “induced suppression”.
